N#Cc1ccc2[nH]c(-c3ccc(Cl)c(Cl)c3)c(CCCC(=O)O)c2c1 [Example 1, 2-(3,4-dichlorophenyl)-5-cyano-1H-indole-3-butanoic Acid]
melting point: 158 to 160 °C
